According to patent US20250248970A1, “NOVEL SUBSTITUTED FLUORINATED N-PROPYL-PYRROLIDINE COMPOUNDS, PROCESSES FOR THEIR PREPARATION AND THERAPEUTIC USES THEREOF” (SANOFI, priority 2022, published 2025):

Tests used:
ERα = biological target: T1, ERα (Homo sapiens, UniProt P03372); assay: Estrogen receptor degradation activity (breast cancer cell ERα in cell western assay); type: cell-based; conditions: MCF7 cells; for % Degradation At 0.3 μM: 4 hours, % of ERα levels decrease relative to fulvestrant
T1 construct: host or cells: MCF7
T1 sequence (P03372 1-595): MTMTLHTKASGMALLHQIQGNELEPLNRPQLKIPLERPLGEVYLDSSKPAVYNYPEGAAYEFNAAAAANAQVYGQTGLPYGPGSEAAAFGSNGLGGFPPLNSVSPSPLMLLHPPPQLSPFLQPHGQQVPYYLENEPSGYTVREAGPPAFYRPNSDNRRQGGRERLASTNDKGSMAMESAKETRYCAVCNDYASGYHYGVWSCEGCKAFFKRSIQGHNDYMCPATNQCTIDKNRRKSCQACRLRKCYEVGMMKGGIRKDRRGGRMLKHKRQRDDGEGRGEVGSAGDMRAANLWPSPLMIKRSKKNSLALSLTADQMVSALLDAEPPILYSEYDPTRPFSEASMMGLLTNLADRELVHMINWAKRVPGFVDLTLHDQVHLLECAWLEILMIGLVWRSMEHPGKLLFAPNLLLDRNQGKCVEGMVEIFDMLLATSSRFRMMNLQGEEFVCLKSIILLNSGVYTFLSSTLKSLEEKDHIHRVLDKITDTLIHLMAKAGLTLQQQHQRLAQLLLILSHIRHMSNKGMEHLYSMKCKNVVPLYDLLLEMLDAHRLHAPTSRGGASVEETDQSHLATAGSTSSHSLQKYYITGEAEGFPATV
Description: Said test involves measuring the in vitro degradation activity of the compounds of the Table 1a.
The measurements of the degradation activities were made using a breast cancer cell ERα in cell western assay as described hereunder.
MCF7 cells (ATCC) were seeded in 384 wells microplate (collagen coated) at a concentration of 10000 cells/30 μL per well in red phenol free MEM alpha medium (invitrogen) containing 5% charcoal dextran striped FBS. The following day, 9 points serial 1:5 dilution of each compound was added to the cells in 2.5p L at final concentrations ranging from 0.3-0.0000018 μM (in table 2), or 0.1 μM for fulvestrant (using as positive control). At 4 hours post compound addition the cells were fixed by adding 25 μL of formalin (final concentration 5% formalin containing 0.1% triton) for 10 minutes at room temperature and then washed twice with PBS. Then, 50 μL of LI-COR blocking buffer containing 0.1% Triton was added to plate for 30 minutes at room temperature. LI-COR blocking buffer was removed and cells were incubated overnight at cold room with 50 μL anti-ER rabbit monoclonal antibody (Thermo scientific MA1-39540) diluted at 1:1000 in LI-COR blocking buffer containing 0.1% tween-20. Wells which were treated with blocking buffer but no antibody were used as background control. Wells were washed twice with PBS (0.1% tween-20) and incubated at 37° C. for 60 minutes in LI-COR (0.1% tween-20) containing goat anti-rabbit antibody Alexa 488 (1:1000) and Syto-64 a DNA dye (2 μM final concentration). Cells were then washed 3 times in PBS and scanned in ACUMEN explorer (TTP-Labtech). Integrated intensities in the green fluorescence and red fluorescence were measured to determine the levels of ERα and DNA respectively.
The degradation activity with respect to estrogen receptors in this test is given by the concentration which degrades 50% of the estrogen receptor (or IC50) in nM.
The % of ERα levels decrease were determined as follows: % inhibition=100*(1−(sample−fulvestrant: DMSO−fulvestrant)).

CYP3A4 = CYP3A4 induction potential for ADME profile evaluation (CYP3A4 mRNA by RT-PCR in primary human hepatocytes); type: in vitro ADME; conditions: approximately 48 hours, 0.3-10 μM, relative to 10 μM rifampicin
Description: Such test is based, for example, on the quantification of CYP3A4 mRNA induction performed by RT-PCR analysis. Said % Emax may be calculated as detailed in the illustrative part under the following formula:
[formula] • ECompound: relative fold mRNA expression following treatment with test compound, • EPositive control: relative fold mRNA expression following reference inducer i.e., 10 μM rifampicin, • EVehicle control: relative fold mRNA expression following vehicle treatment i.e., 0.1% DMSO, and • E is the efficiency of the quantitative PCR.
Said test evaluates the potential induction effect of the tested compounds on CYP3A4 gene expression in primary cultures of human hepatocytes from one or two donors with established concentration-dependent response to the reference inducer, rifampicin.
Before seeding, cell viability was estimated using the Trypan blue dye exclusion test. Hepatocytes were seeded on collagen I-coated 96-well plates at a density of 70 000 cells/well in 100 μL of plating medium for at least 4 hours under a humidified atmosphere of CO2/air (5%/95%), at 37° C. After the cell attachment period, the plating medium was removed, and the hepatocytes were treated daily for 2 consecutive days (approximately 48 hours), with 100 μL per well of fresh culture medium containing either the vehicle control (0.1% DMSO) or the investigated compounds at four concentrations 0.3, 1, 3 and 10 μM, or rifampicin, the reference inducer at 10 μM. All incubations were performed in duplicates.
Ten mM stock solutions of the different compounds were diluted to obtain 0.3, 1 and 3 mM daughter solutions. The day of the experiment, stock solutions were diluted 1000-fold in the incubation/culture medium to achieve final concentrations of 0.3, 1, 3 and 10 μM.
After the 48-hour incubation period with the test compounds, the cell culture medium was removed, and the cells were lysed to release the RNA for CYP3A4 gene expression assessment. Quantification of CYP3A4 mRNA induction was performed by RT-PCR analysis.
Total RNA was extracted from hepatocytes using the King Fisher™ Flex Purification System with the MagMAX mirVana Total RNA Isolation kit (Thermo Fisher Scientific, USA). RNA was quantified by fluorimetry using the Quantifluor RNA System (Promega, USA) and cDNAs were synthesized from […] total RNA using the iScript Reverse Transcription Supermix for RT-qPCR from Biorad (France) at 42° C. for 30 min. cDNA samples were then diluted in water (1:5) and 5 μL of each sample was used for real-time PCR amplification by using the SYBR Green kit from Biorad (France). The following program was used: a denaturation step at 95° C. for 30 sec, and 40 cycles of PCR (denaturation, 95° C., 10 sec and annealing and extension, 58° C., 1 min). In all cases, the quality of the PCR product was assessed by monitoring a fusion step at the end of the run. Human forward and reverse primer sequences used were: 5′-CCT-GGC-ACC-CAG-CAC-AAT-3′ and 5′-GGG-CCG GAC-TCG-TCA-TAC-3′ for actin, 5′-CAC-AAA-CG-GAG-GCC-TTT-TG-3′ and 5′-ATC-CAT-GCT-GTA-GGC-CCC-AA-3′ for CYP3A4.
Cq (quantification cycle) values were determined using a multi-variable, non-linear regression model to individual well traces and then using this model an optimal Cq value was computed. Cq values are inversely proportional to the amount of target nucleic acid in the sample (i.e., lowest Cq level corresponds to the greatest amount of target nucleic acid in the sample). Cq of reference gene (in this study human actin) was also used as positive control of quantitative PCR.
The extent of induction or % of Emax, resulting from treatment with test compounds was calculated under the following formula: […]

Cl.O=C(O)c1ccc2c(c1)CCCC(c1ccc(F)cc1C(F)(F)F)=C2c1ccc(CC2CCN(CCC(F)F)C2)cc1 (single isomer, unassigned; isomer 1) [Compound 5, 9-(4-((1-(3,3-difluoropropyl)pyrrolidin-3-yl)methyl)phenyl)-8-(4-fluoro-2-(trifluoromethyl)phenyl)-6,7-dihydro-5H-benzo[7]annulene-3-carboxylic acid hydrochloride, Isomer 1]
% Degradation At 0.3 μM (ERα): 80% | CYP3A4 induction Emax (%) (CYP3A4): 13%

Cl.O=C(O)c1ccc2c(c1)CCCC(c1ccc(F)cc1Cl)=C2c1ccc(CC2CCN(CCCF)C2)cc1 (single isomer, unassigned; isomer 1) [Compound 2, 8-(2-chloro-4-fluorophenyl)-9-(4-((1-(3-fluoropropyl)pyrrolidin-3-yl)methyl)phenyl)-6,7-dihydro-5H-benzo[7]annulene-3-carboxylic acid hydrochloride, Isomer 1]
% Degradation At 0.3 μM (ERα): 74% | CYP3A4 induction Emax (%) (CYP3A4): 23%

Cc1c(C2=C(c3ccc(CC4CCN(CCCF)C4)cc3)c3ccc(C(=O)O)cc3CCC2)cccc1C(F)(F)F.Cl (single isomer, unassigned; isomer 1) [Compound 12, 9-(4-((1-(3-fluoropropyl)pyrrolidin-3-yl)methyl)phenyl)-8-(2-methyl-3-(trifluoromethyl)phenyl)-6,7-dihydro-5H-benzo[7]annulene-3-carboxylic acid hydrochloride, Isomer 1]
% Degradation At 0.3 μM (ERα): 90% | CYP3A4 induction Emax (%) (CYP3A4): 34%

O=C(O)c1ccc2c(c1)CCCC(c1ccc(Cl)cc1Cl)=C2c1ccc(N[C@H]2CCN(CCCF)C2)cc1 [Compound C2, (S)-8-(2,4-Dichlorophenyl)-9-(4-((1-(3-fluoropropyl)pyrrolidin-3-yl)amino)phenyl)-6,7-dihydro-5H-benzo[7]annulene-3-carboxylic acid, reference compound]
% Degradation At 0.3 μM (ERα): 89% | degradation activity on estrogen receptors (in words) (ERα; tested at 0.3 μM): significant degradation activity | CYP3A4 induction Emax (%) (CYP3A4): 85%

O=C(O)c1ccc2c(c1)CCCC(c1ccc(Cl)cc1Cl)=C2c1ccc(O[C@H]2CCN(CCCF)C2)cc1 [(C1), reference compound]
CYP3A4 induction Emax (%) (CYP3A4): 93%

Cl.O=C(O)c1ccc2c(c1)CCCC(c1cccc(Cl)c1C(F)(F)F)=C2c1ccc(CC2CCN(CCCF)C2)cc1 (single isomer, unassigned; isomer 1) [Compound 13, 8-(3-chloro-2-(trifluoromethyl)phenyl)-9-(4-((1-(3-fluoropropyl)pyrrolidin-3-yl)methyl)phenyl)-6,7-dihydro-5H-benzo[7]annulene-3-carboxylic acid hydrochloride, Isomer 1]
% Degradation At 0.3 μM (ERα): 90% | CYP3A4 induction Emax (%) (CYP3A4): 26%

Cc1cc(F)ccc1C1=C(c2ccc(CC3CCN(CCC(F)F)C3)cc2)c2ccc(C(=O)O)cc2CCC1.Cl (single isomer, unassigned; isomer 1) [Compound 4, 9-(4-((1-(3,3-difluoropropyl)pyrrolidin-3-yl)methyl)phenyl)-8-(4-fluoro-2-methylphenyl)-6,7-dihydro-5H-benzo[7]annulene-3-carboxylic acid hydrochloride, Isomer 1]
% Degradation At 0.3 μM (ERα): 83% | CYP3A4 induction Emax (%) (CYP3A4): 30%

CC1(C)CCC(C2=C(c3ccc(CC4CCN(CCCF)C4)cc3)c3ccc(C(=O)O)cc3CCC2)CC1.Cl (single isomer, unassigned; isomer 1) [Compound 3, 8-(4,4-dimethylcyclohexyl)-9-(4-((1-(3-fluoropropyl)pyrrolidin-3-yl)methyl)phenyl)-6,7-dihydro-5H-benzo[7]annulene-3-carboxylic acid, Isomer 1]
% Degradation At 0.3 μM (ERα): 85% | CYP3A4 induction Emax (%) (CYP3A4): 8%

Cc1cccc(C2=C(c3ccc(CC4CCN(CCCF)C4)cc3)c3ccc(C(=O)O)cc3CCC2)c1C(F)(F)F (single isomer, unassigned; isomer 1) [Compound 30, 9-(4-((1-(3-fluoropropyl)pyrrolidin-3-yl)methyl)phenyl)-8-(3-methyl-2-(trifluoromethyl)phenyl)-6,7-dihydro-5H-benzo[7]annulene-3-carboxylic acid, Isomer 1]
% Degradation At 0.3 μM (ERα): 85% | CYP3A4 induction Emax (%) (CYP3A4): 15%

Cl.O=C(O)c1ccc2c(c1)CCCC(c1cccc(F)c1Cl)=C2c1ccc(CC2CCN(CCCF)C2)cc1 (single isomer, unassigned; isomer 1) [Compound 21, 8-(2-chloro-3-fluorophenyl)-9-(4-((1-(3-fluoropropyl)pyrrolidin-3-yl)methyl)phenyl)-6,7-dihydro-5H-benzo[7]annulene-3-carboxylic acid hydrochloride, Isomer 1]
% Degradation At 0.3 μM (ERα): 87% | CYP3A4 induction Emax (%) (CYP3A4): 42%

Cc1c(Cl)cccc1C1=C(c2ccc(CC3CCN(CCC(F)F)C3)cc2)c2ccc(C(=O)O)cc2CCC1.Cl (single isomer, unassigned; isomer 1) [Compound 6, 8-(3-chloro-2-methylphenyl)-9-(4-((1-(3,3-difluoropropyl)pyrrolidin-3-yl)methyl)phenyl)-6,7-dihydro-5H-benzo[7]annulene-3-carboxylic acid hydrochloride, Isomer 1]
% Degradation At 0.3 μM (ERα): 81% | CYP3A4 induction Emax (%) (CYP3A4): 8%
